The text below walks through data of patent US12503453B2, “USP7 inhibition” (Dana-Farber Cancer Institute, Inc., priority 2018, dated 2025).

The subject of assay [1] is MDM2-p53 signaling axis in MCF7 cells. The assay is described as follows: Whole cell lysate Western blots of MCF7 cells (MDM2-p53 signaling axis). The class given is cell-based. The following applies: wild-type TP53. A general note: A western blot detects proteins with antibodies after separation by electrophoresis.
The subject of assay [2] is MCF7 cells. The assay is described as follows: Cell cycle analysis by propidium iodide staining. In kind it is cell-based. The following applies: 1 μM, 24 hours. As for the experimental part:
For propidium iodide (PI) staining, treated cells (˜1 million per condition) were washed with cold PBS, then fixed in 80% ethanol overnight at −20° C. After fixing, cells were pelleted, washed with PBS, and reconstituted in 500 μL FxCycle PI/RNAse A staining solution (Thermo Fisher). Cells were stored overnight at 4° C. and analyzed using a BD Fortessa flow cytometer.

Assay [3] deals with MCF7 cells. Briefly: Transcriptome profiling, 3' Digital Gene Expression RNA-seq. The class given is cell-based. To be noted: 24 hours, low or high doses. The source says:
Overall, transcripts were detected for 7000-10,000 genes (7276 genes detected across all conditions).
The same report had also identified a set of dimerization partner, Retinoblastoma-like, E2F and multi-vulval class B (DREAM) complex target genes by combining p53 repression data (generated in part with Nutlin-3A-treated MCF7 cells) with cell cycle expression and DREAM component binding.

The target in assay [4] is full length USP7 (Homo sapiens (Human), UniProt Q93009). The assay is described as follows: Ub-AMC kinetic assay (ki and kinact). The class given is biochemical. The following applies: pre-incubation 5 min-3 hours; read-out: inhibition constant (Ki). The method, then:
Full length USP7 was tested for its activity in Ubiquitin-AMC assay in presence or absence of inhibitors. USP7 (5 nM) was pre-incubated for 6 hours at room temperature with different concentrations of inhibitors or DMSO as a control in 50 mM HEPES pH 7.5, 0.5 mM EDTA, 11 μM ovalbumin, and 5 mM DTT. Ubiquitin-AMC (Boston Biochem) was then added to a final concentration of 500 nM. The initial rate of the reaction was measured by collecting fluorescence data at one minute intervals over 30-minute period using a Clariostar fluorescence plate reader at excitation and emission wavelength of 345 and 445 nm respectively. The calculated initial rate values were plotted against inhibitor concentrations to determine IC50s. All the experimental data were plotted using Prism GraphPad. All assays for each compound were performed at least twice for each compound.
To determine kobs, the time course curves were fit to the equation y=ymax(1−exp(−kobs·x)). The kobs values were then plotted against the inhibitor concentrations and fit to the equation y=kinact/(1+(ki/x)) to obtain the values for ki and kinact.

The test system of assay [5] is Ewing sarcoma cell lines, TP53 WT and mutant. To be noted: recently reported study; cited from earlier work.
The test system is the same in assay [6]. Briefly: Cell proliferation (CellTiter-Glo), panel of Ewing sarcoma cell lines. The class given is cell-based. The following applies: same set of cell lines. As for the experimental part:
Cells were plated in 384-well culture-treated plates and allowed to settle overnight. After drug treatment and appropriate incubation time, cell viability was assessed using the CellTiter-Glo Luminescent Cell Viability Assay (Promega). Luminescence was read on a Fluostar Omega Reader (BMG Labtech).

By Ki is commonly meant a measure of affinity in units of concentration, obtained from inhibition or displacement.

full length USP7, sequence (Q93009 whole entry): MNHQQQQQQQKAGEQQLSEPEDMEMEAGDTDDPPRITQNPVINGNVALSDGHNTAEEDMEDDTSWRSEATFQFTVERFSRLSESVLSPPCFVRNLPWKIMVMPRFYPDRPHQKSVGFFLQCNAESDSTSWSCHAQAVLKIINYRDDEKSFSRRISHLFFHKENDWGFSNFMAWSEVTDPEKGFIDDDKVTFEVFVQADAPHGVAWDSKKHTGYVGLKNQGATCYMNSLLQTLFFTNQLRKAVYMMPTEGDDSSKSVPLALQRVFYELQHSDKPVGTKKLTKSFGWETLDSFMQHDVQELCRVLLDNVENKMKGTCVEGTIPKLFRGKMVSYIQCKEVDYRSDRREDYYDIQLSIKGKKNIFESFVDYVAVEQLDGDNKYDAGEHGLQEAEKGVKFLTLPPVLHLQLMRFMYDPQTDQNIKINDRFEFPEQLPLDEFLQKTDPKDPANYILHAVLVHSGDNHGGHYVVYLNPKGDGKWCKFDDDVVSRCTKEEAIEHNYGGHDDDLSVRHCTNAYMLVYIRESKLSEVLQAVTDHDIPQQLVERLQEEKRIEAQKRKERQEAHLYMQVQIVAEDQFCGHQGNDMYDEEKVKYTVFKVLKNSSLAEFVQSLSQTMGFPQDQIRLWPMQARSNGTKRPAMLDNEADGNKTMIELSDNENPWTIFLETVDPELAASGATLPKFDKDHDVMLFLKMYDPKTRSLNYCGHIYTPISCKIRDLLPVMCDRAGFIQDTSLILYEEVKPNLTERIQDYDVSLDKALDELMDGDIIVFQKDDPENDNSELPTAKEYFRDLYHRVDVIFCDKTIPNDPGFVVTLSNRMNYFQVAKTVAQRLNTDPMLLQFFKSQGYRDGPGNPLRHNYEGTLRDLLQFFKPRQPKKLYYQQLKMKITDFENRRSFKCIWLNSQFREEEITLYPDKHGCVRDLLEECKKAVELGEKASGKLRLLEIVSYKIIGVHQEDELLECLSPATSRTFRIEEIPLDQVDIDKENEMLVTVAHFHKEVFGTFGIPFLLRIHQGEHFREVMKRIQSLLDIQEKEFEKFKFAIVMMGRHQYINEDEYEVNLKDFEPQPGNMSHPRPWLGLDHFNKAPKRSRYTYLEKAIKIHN

`CN1CCN(CCC(=O)Nc2ccc3c(=O)n(CC4(O)CCN(C(=O)[C@H](CCCNC(=O)c5ccc6c(Cl)c7c(nc6c5)CCCC7)Cc5ccccc5)CC4)cnc3c2)CC1` [compound 7, (R)-N-(4-benzyl-5-(4-hydroxy-4-((7-(3-(4-methylpiperazin-1-yl)propanamido)-4-oxoquinazolin-3(4H)-yl)methyl)piperidin-1-yl)-5-oxopentyl)-9-chloro-5,6,7,8-tetrahydroacridine-3-carboxamide]: the MDM2 protein level result in assay [1] was “did not exert any of the same effects”. Further, the cell cycle effect entry in assay [2] is given as “did not exert any of the same effects”. The transcriptional profile entry in assay [3] is “highly correlated with the vehicle (DMSO)-treated control cells”.

For `CN1CCN(CCC(=O)Nc2ccc3c(=O)n(CC4(O)CCN(C(=O)CCCCNC(=O)c5ccc6c(Cl)c7c(nc6c5)CCCC7)CC4)cnc3c2)CC1` [compound 1, 9-chloro-N-(5-(4-hydroxy-4-((7-(3-(4-methylpiperazin-1-yl)propanamido)-4-oxoquinazolin-3(4H)-yl)methyl)piperidin-1-yl)-5-oxopentyl)-5,6,7,8-tetrahydroacridine-3-carboxamide], the Ki in assay [4] was 2.8 ± 1.8 nM.

Take `CC(=O)c1cc([N+](=O)[O-])c(Sc2cccc(Cl)c2Cl)s1` [P5091]: in assay [5], the “activity against WT and TP53-KO Ewing Sarcoma cells” value was “equipotent activity against WT and TP53-KO Ewing Sarcoma cells”. Besides, the “specificity for TP53-WT expressing cells” value in assay [6] was “little to no specificity for TP53-WT expressing cells”.
